How the values were obtained:
Type in all cases: cell-based
human TLR8 = target: T1, human TLR8 (Homo sapiens, UniProt Q9NR97); assay: TLR8 inhibition reporter assay (HEK-Blue cells, SEAP reporter, R848 stimulation); details: HEK-Blue cells overexpressing human TLR8, SEAP reporter, R848 15.9 μM
T1 construct: host or cells: HEK-Blue cells (HEK293-derived reporter line)
T1 sequence (Q9NR97 27-1041): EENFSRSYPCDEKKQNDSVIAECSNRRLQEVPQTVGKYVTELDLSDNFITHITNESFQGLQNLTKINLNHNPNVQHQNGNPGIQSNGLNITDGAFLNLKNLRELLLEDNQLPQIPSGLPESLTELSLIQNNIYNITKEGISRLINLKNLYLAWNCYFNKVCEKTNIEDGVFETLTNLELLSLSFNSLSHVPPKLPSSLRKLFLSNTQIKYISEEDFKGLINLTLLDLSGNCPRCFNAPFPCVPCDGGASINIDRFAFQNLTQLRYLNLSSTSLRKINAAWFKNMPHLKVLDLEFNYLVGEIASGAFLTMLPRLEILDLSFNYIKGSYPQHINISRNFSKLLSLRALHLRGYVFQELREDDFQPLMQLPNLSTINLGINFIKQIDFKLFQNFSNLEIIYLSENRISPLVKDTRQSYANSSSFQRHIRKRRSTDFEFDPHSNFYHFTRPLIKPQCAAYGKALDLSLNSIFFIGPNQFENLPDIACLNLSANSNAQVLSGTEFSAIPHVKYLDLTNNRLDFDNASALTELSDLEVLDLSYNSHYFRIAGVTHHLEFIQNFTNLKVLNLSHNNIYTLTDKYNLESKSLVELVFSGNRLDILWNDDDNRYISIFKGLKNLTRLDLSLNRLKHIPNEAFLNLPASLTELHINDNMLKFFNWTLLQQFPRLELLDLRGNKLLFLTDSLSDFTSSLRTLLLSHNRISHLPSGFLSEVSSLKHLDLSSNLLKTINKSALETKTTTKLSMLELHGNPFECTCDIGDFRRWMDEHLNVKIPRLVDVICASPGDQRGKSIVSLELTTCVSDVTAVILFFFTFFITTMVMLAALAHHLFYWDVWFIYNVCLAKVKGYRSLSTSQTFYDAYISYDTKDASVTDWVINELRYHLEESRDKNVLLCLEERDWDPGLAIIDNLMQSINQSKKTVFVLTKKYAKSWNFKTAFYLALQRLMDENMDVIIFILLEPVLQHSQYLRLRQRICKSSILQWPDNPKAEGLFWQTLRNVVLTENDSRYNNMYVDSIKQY
Experimental: (§1) TLR7/8/9 Inhibition Reporter Assays
(§2) HEK-Blue™-cells (Invivogen) overexpressing human TLR7, TLR8 or TLR9 receptors were used for screening inhibitors of these receptors using an inducible SEAP (secreted embryonic alkaline phosphatase) reporter gene under the control of the IFN-β minimal promoter fused to five NF-κB and AP-1-binding sites. Briefly, cells are seeded into Greiner 384 well plates (15000 cells per well for TLR7, 20,000 for TLR8 and 25,000 for TLR9) and then treated with test compounds in DMSO to yield a final dose response concentration range of 0.05 nM-50 μM. After a 30 minute compound pre-treatment at room temperature, the cells are then stimulated with a TLR7 ligand (gardiquimod at a final concentration of 7.5 μM), TLR8 ligand (R848 at a final concentration of 15.9 μM) or TLR9 ligand (ODN2006 at a final concentration of 5 nM) to activate NF-κB and AP-1 which induce the production of SLAP After a 22 hour incubation at […], SLAP levels are determined with the addition of HLK-Blue™ Detection reagent (Invivogen), a cell culture medium that allows for detection of SLAP, according to manufacturer's specifications. The percent inhibition is determined as the […] in the HEK-Blue signal present in wells treated with agonist plus DMSO alone compared to wells treated with a known inhibitor.

human TLR7 = target: T2, human TLR7 (Homo sapiens, UniProt Q9NYK1); assay: TLR7 inhibition reporter assay (HEK-Blue cells, SEAP reporter, gardiquimod stimulation); details: HEK-Blue cells overexpressing human TLR7, SEAP reporter, gardiquimod 7.5 μM
T2 construct: host or cells: HEK-Blue cells (HEK293-derived reporter line)
T2 sequence (Q9NYK1 27-1049): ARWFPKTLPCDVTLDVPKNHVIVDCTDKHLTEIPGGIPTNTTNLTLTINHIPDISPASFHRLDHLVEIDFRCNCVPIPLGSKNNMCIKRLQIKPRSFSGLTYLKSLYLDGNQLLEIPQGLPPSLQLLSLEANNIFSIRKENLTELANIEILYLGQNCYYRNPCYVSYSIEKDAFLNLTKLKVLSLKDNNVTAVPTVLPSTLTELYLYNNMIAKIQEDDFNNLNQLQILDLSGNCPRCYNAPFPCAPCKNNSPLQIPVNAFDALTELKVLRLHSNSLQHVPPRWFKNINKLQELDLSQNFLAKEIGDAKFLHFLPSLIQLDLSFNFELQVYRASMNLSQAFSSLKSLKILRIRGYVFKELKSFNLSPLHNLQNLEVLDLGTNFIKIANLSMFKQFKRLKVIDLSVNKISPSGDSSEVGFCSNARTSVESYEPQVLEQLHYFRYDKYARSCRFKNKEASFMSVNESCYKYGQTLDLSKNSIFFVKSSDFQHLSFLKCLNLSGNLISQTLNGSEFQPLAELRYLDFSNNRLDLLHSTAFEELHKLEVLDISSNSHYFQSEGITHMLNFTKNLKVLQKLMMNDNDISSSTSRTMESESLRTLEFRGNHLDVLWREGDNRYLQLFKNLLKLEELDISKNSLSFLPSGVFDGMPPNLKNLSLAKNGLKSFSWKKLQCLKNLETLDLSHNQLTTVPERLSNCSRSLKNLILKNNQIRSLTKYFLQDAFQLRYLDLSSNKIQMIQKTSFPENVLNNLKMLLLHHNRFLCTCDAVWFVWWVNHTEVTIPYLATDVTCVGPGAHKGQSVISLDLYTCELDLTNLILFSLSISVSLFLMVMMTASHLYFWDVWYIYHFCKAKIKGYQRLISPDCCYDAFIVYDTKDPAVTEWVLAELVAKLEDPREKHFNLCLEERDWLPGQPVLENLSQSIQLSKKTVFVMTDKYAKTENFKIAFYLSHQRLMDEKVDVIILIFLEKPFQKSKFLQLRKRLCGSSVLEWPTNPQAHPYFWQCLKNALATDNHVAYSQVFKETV
Experimental: as §1, §2

human TLR9 = target: T3, human TLR9 (Homo sapiens, UniProt Q9NR96); assay: TLR9 inhibition reporter assay (HEK-Blue cells, SEAP reporter, ODN2006 stimulation); details: HEK-Blue cells overexpressing human TLR9, SEAP reporter, ODN2006 5 nM
T3 construct: host or cells: HEK-Blue cells (HEK293-derived reporter line)
T3 sequence (Q9NR96 26-1032): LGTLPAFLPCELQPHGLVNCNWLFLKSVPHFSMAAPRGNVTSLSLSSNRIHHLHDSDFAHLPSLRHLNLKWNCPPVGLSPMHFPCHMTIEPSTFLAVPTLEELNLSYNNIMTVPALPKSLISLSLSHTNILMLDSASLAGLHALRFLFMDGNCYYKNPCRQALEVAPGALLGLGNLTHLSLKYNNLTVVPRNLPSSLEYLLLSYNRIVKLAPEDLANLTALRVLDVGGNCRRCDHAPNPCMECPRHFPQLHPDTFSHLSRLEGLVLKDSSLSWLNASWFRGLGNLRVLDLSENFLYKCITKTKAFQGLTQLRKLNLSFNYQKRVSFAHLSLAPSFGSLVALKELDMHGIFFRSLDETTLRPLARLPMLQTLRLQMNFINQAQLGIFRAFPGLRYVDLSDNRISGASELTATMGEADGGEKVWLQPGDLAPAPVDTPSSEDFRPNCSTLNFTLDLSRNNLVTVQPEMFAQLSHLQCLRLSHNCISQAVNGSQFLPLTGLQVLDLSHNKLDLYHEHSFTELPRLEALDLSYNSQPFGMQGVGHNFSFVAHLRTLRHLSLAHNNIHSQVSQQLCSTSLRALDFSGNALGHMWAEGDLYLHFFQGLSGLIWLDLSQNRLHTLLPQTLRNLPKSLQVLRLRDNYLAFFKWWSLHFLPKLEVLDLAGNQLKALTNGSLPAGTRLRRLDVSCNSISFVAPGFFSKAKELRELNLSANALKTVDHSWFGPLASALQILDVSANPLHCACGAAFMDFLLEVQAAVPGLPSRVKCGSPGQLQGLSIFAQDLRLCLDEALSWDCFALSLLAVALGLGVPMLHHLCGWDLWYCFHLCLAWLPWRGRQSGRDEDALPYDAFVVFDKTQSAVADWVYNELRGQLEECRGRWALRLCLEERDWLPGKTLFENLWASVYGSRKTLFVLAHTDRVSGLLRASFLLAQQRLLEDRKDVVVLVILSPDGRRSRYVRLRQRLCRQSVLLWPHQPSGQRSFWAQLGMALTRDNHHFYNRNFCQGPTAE
Experimental: as §1, §2

IC50 (human TLR8) [µM] | IC50 (human TLR7) [µM] | IC50 (human TLR9) [µM] | SMILES
< 0.1 | < 0.1 | 0.1 to 1 | COc1cc(CN(C)C)cc(CN2CCC(c3ccc4[nH]c(-c5ccnc6[nH]ncc56)c(C(C)C)c4c3)CC2)c1O [Example 924, 4-((dimethylamino)methyl)-2-((4-(3-isopropyl-2-(1H-pyrazolo[3,4-b]pyridin-4-yl)-1H-indol-5-yl)piperidin-1-yl)methyl)-6-methoxyphenol]
< 0.1 | < 0.1 | 1 to 50 | Cc1cc(-c2[nH]c3ccc(C4CCN(C5COC5)CC4)cc3c2C(C)C)cc2ncnn12 [Example 727, 7-(3-isopropyl-5-(1-(oxetan-3-yl)piperidin-4-yl)-1H-indol-2-yl)-5-methyl-[1,2,4]triazolo[1,5-a]pyridine]
0.1 to 1 | < 0.1 | 1 to 50 | Cc1cc(-c2[nH]c3ccc(C4CCN(C5COC5)CC4)cc3c2C(C)C)cc2cccnc12 [Example 723, 6-(3-isopropyl-5-(1-(oxetan-3-yl)piperidin-4-yl)-1H-indol-2-yl)-8-methylquinoline]
1 to 50 | 0.1 to 1 | 0.1 to 1 | CC(C)c1c(-c2cnc3ccnn3c2)[nH]c2ccc(C3CCN(Cc4cnn(C)c4)CC3)cc12 [Example 932, 6-(3-isopropyl-5-(1-((1-methyl-1H-pyrazol-4-yl)methyl)piperidin-4-yl)-1H-indol-2-yl)pyrazolo[1,5-a]pyrimidine]
0.1 to 1 | < 0.1 | 1 to 50 | Cc1cc(-c2[nH]c3ccc(C4CCN(C5CCOCC5)CC4)cc3c2C(C)C)cc2cccnc12 [Example 704, 6-(3-isopropyl-5-(1-(tetrahydro-2H-pyran-4-yl)piperidin-4-yl)-1H-indol-2-yl)-8-methylquinoline]

Continued, compound first:

SMILES | IC50 (human TLR8) [µM] | IC50 (human TLR7) [µM] | IC50 (human TLR9) [µM]
Cc1ccc(-c2[nH]c3ccc(C4CCN(C(=O)C[C@H](C)O)CC4)cc3c2C(C)C)c2ncnn12 [Example 599, (S)-3-hydroxy-1-(4-(3-isopropyl-2-(5-methyl-[1,2,4]triazolo[1,5-a]pyridin-8-yl)-1H-indol-5-yl)piperidin-1-yl)butan-1-one] | 0.1 to 1 | 0.1 to 1 | 1 to 50
CC(C)c1c(-c2ccnc3[nH]ccc23)[nH]c2ccc(C3CCNCC3)cc12 [Example 1, 4-(3-isopropyl-5-(piperidin-4-yl)-1H-indol-2-yl)-1H-pyrrolo[2,3-b]pyridine] | < 0.1 | < 0.1 | 1 to 50
Cc1cc(-c2[nH]c3ccc(C4CCN(C(=O)CCN5CCCC5)CC4)cc3c2C(C)C)cn2nnnc12 [Example 618, 1-(4-(3-isopropyl-2-(8-methyltetrazolo[1,5-a]pyridin-6-yl)-1H-indol-5-yl)piperidin-1-yl)-3-(pyrrolidin-1-yl)propan-1-one] | < 0.1 | < 0.1 | 0.1 to 1
CNCCN1CCC(c2ccc3[nH]c(-c4ccnc5[nH]ccc45)c(C)c3c2)CC1 [Example 668, N-methyl-2-(4-(3-methyl-2-(1H-pyrrolo[2,3-b]pyridin-4-yl)-1H-indol-5-yl)piperidin-1-yl)ethan-1-amine] | < 0.1 | 0.1 to 1 | 0.1 to 1
Cc1cc(-c2[nH]c3ccc(C4CCNCC4)cc3c2C(C)C)cc2c(C(=O)N(C)C)cnn12 [Example 275, 5-(3-isopropyl-5-(piperidin-4-yl)-1H-indol-2-yl)-N,N,7-trimethylpyrazolo[1,5-a]pyridine-3-carboxamide] | > 3.13 | 0.1 to 1 | 1 to 50
Cc1cn2cc(-c3[nH]c4ccc(C5CCNCC5)cc4c3C(C)C)c(C)cc2n1 [Example 122, 6-(3-isopropyl-5-(piperidin-4-yl)-1H-indol-2-yl)-2,7-dimethylimidazo[1,2-a]pyridine] | 0.1 to 1 | < 0.1 | 0.1 to 1
CC(C)c1c(-c2cc(Cl)c3ncccc3c2)[nH]c2ccc(C3CCNCC3)cc12 [Example 139, 8-chloro-6-(3-isopropyl-5-(piperidin-4-yl)-1H-indol-2-yl)quinoline] | < 0.1 | < 0.1 | 1 to 50
Cc1c(-c2ccnc3[nH]cc(O)c23)[nH]c2ccc(C3CCNCC3)cc12 [Example 212, 4-(3-methyl-5-(piperidin-4-yl)-1H-indol-2-yl)-1H-pyrrolo[2,3-b]pyridin-3-ol] | 1 to 50 | 1 to 50 | 1 to 50
